Measured values published in patent US20070167412A1, “HALOCOMBSTATINS AND METHODS OF SYNTHESIS THEREOF” (ARIZONA BOARD OF REGENTS, priority 2003, published 2007).
Values after ≈ are worked out from the molar mass of the structure shown. Where two headings read alike, the source gives them in different places.

Key:
purified tubulin = tested on: T1, purified tubulin; experiment: inhibition of tubulin polymerization (turbidimetry); assay type: biochemical
T1 construct: other: 10 μM tubulin, GTP 0.4 mM, 30° C., extent after 20 minutes
Method: (§1) Tubulin polymerization was evaluated by turbidimetry at 350 nm using Beckman DU7400/7500 spectrophotometers as described in detail elsewhere. […] Varying concentrations of drug were preincubated with 10 μM:M ([…]) purified tubulin (See Hamel, E., et al., Separation of Active Tubulin and Microtubule-associated Proteins by Ultracentrifiigation and Isolation of a Component Causing the Formation of Microtubule Bundles, Biochemistry 1984, 23, 4173-4184). Samples were chilled on ice, GTP (0.4 mM) was added, and polymerization was followed at 30° C. The parameter measured was extent of the reaction after 20 minutes. Coichicine binding was measured as described in detail previously. Reaction mixtures contained 1.0 μM :M tubulin, 5.0:M, [^3H]colchicine (from Dupont), and inhibitor at 1.0 μM:M. Incubation was for 10 minutes at 37° C.
Tubulin Evaluations: Tubulin polymerization was evaluated by turbidimetry at […] using Beckman DU7400/7500 spectrophotometers as known to one of skill in the art. Varying concentrations of the compound were preincubated with 10 μM. […]

Pancreas BXPC-3 = experiment: human cancer cell growth inhibition, sulforhodamine B assay; assay type: cell-based; conditions: Table I, 48 hours
Method: (§2) Inhibition of human cancer cell growth was assessed using the National Cancer Institute's standard sulforhodamine B assay. After 48 hours, the plates were fixed with trichloracetic acid, stained with sulforhodamine B and read with an automated microplate reader. […] Inhibition of the mouse leukemia P388 cells was assessed in a 10% horse serum/Fisher medium soution for 24 hours, followed by a 48 hour incubation with serial dilutions of the compounds. Cell growth inhibition (ED50) was then calculated using a Z1 Becleman/Coulter particle counter.

Breast MCF-7 = experiment: as above; assay type: cell-based; conditions: Homo sapiens, MCF7; Table I; 48 hours; read-out: Human cancer cell line inhibition (GI50) Breast adn MCF-7
Method: as §2

CNS SF268 = experiment: as above; assay type: cell-based; conditions: Table I, 48 hours
Method: as §2

Colon KM20L2 = experiment: as above; assay type: cell-based; conditions: Table I, 48 hours
Method: as §2

Prostate DU-145 = experiment: as above; assay type: cell-based; conditions: Table I, 48 hours
Method: as §2

Lung-NSC NCI-H460 = experiment: as above; assay type: cell-based; conditions: Table I, 48 hours
Method: as §2

Enterococcus faecalis = experiment: reference broth microdilution susceptibility assay; assay type: cell-based; conditions: Table III
Text: (§3) The halocombstatins of the present invention appear to also have antimicrobial properties. More specifically, they appear to have antifungal and/or antibacterial properties. Antimicrobial evaluation of the halocombstatins involved susceptibility testing performed by the reference broth microdilution assay. The antimicrobial activities of the halocombstatins were very similar, targeting Gram-positive bacteria and the pathogenic fungi Cryptococcus neoformans, and results are shown in Table III.
(§4) (See Pettit, G. R., et al., Antineoplastic Agents 463. Synthesis of Combretastatin A-3 Diphosphates, Anticancer Drug Design 2000, 15, 397-404.) To determine the antimicrobial activity of the present compounds, susceptibility testing was performed by the reference broth microdilution assay. (See National Committee for Clinical Laboratory Standards. Methods for Dilution Antimicrobial Susceptibility Tests for Bacteria that Grow Aerobically. Approved Standard M7-A5. Wayne, P A: NCCLS, 2000. National Committee for Clinical Laboratory Standards. Reference Method for Broth Dilution Antifungal Susceptibility Testing of Yeasts. Aproved Standard M27-A. Wayne, P A: NCCLS, 1997.) The antimicrobial activities of the halocombretastatins of the present invention were very similar, targeting Gram-positive bacteria and Cryptococcus neoformans. This is illustrated in further detail in Table III. Thus, several of the novel compounds of the present invention appear to have potential as antimicrobial agents, such as antifingals and antibacterials.

Micrococcus luteus = experiment: reference broth microdilution susceptibility assay; assay type: cell-based; conditions: Table III
Text: as §3, §4

Candida albicans = experiment: reference broth microdilution susceptibility assay; assay type: cell-based; conditions: Table III
Text: as §3, §4

Escherichia coli = experiment: reference broth microdilution susceptibility assay; assay type: cell-based; conditions: Table III
Text: as §3, §4

Neisseria gonorrhoeae = experiment: reference broth microdilution susceptibility assay; assay type: cell-based; conditions: Table III
Text: as §3, §4

[1] = tested on: Stenotrophomonas maltophilia; experiment: reference broth microdilution susceptibility assay; assay type: cell-based; conditions: Table III
Text: as §3, §4

Cryptococcus neoformans = experiment: reference broth microdilution susceptibility assay; assay type: cell-based; conditions: Table III
Text: as §3, §4

Enterobacter cloacae = experiment: reference broth microdilution susceptibility assay; assay type: cell-based; conditions: Table III
Text: as §3, §4

Streptococcus pneumoniae = experiment: reference broth microdilution susceptibility assay; assay type: cell-based; conditions: Table III
Text: as §3, §4

Staphylococcus aureus = experiment: reference broth microdilution susceptibility assay; assay type: cell-based; conditions: Table III
Text: as §3, §4

tubulin = experiment: inhibition of [3H]colchicine binding to tubulin; conditions: 1.0 μM tubulin, 5.0 μM [3H]colchicine, inhibitor at 1.0 μM, 10 minutes at 37° C.
Method: as §1

[2] = tested on: human umbilical vein endothelial cells (HUVEC); experiment: Matrigel cord formation assay; assay type: cell-based; parameters: key: −: No Junctions; +: Few; ++: ˜50% of Control; +++: Same as Control; conditions: 24 hours, compared to untreated controls
Method: (§5) In vitro Matrigel antiangiogenesis assays were implemented according to the Developmental Therapeutics Program NCI/NIH protocols known to one of skill in the art. Matrigel, a basement membrane matrix, was obtained from BD Biosciences. Growth inhibition and cord formation assays were Conducted using human umbilical vein endothelial cells obtained from GlycoTeCh. HUVEC cells were grown in EGM-2 medium.
(§6) An aliquot of sixty microliters was placed in each well of an ice-cold 96-well plate. The plates were then left for 15 minutes at room temperature, then incubated for 30 minutes at 37° C. to permit the matrigel to polymerize. Meanwhile, HUVEC cells were harvested and diluted to a concentration of 2×10^5 cells/ml. A solution of 100 μL containing the compounds to be tested was added next. After 24 hours incubation, pictures were taken for each concentration using an inverted Nikon Diaphot microscope and D100 digital camera. Drug effect was assessed, compared to untreated controls, by measuring the length of cords formed and number ofjunctions.

[3] = tested on: human umbilical vein endothelial cells (HUVEC); experiment: Matrigel cord formation assay; assay type: cell-based; parameters: key to Lengths of Cords: −: No Cords; +: Small; ++: ˜50% of Control; +++: Same as Control; conditions: 24 hours, compared to untreated controls
Method: as §5, §6

[4] = tested on: human umbilical vein endothelial cells (HUVEC); experiment: Matrigel cord formation assay; assay type: cell-based; parameters: key: −: No Cords; +: Small; ++: ˜50% of Control; +++: Same as Control; conditions: 24 hours, compared to untreated controls
Method: as §5, §6

[5] = tested on: human umbilical vein endothelial cells (HUVEC); experiment: HUVEC growth inhibition, sulforhodamine B assay; assay type: cell-based
Method: as §5
The standard sulforhodamine B assay (see Cancer Cell Line Procedures above) was used to evaluate results using HUVEC cells. IC50 or ED50 (drug concentration causing 50% inhibition) was calculated from the plotted data.

KAT-4 = experiment: human anaplastic thyroid carcinoma cell line inhibition; assay type: cell-based
Method: (§7) Inhibition of human cancer cell growth was assessed using the National Cancer Institute's standard sulforhodamine B assay. After 48 hours, the plates were fixed with trichloracetic acid, stained with sulforhodamine B and read with an automated microplate reader. A growth inhibition of 50% (GI50 or the drug concentration causing a 50% reduction in the net protein increase) was calculated from optical density data with Inmunosoft software. Inhibition of the mouse leukemia P388 cells was assessed in a 10% horse serum/Fisher medium soution for 24 hours, followed by a 48 hour incubation with serial dilutions of the compounds. Cell growth inhibition (ED50) was then calculated using a Z1 Becleman/Coulter particle counter.

SW1736 = experiment: as above; assay type: cell-based
Method: as §7

COc1ccc(/C=C\c2cc(Br)c(OC)c(OC)c2)cc1O [Compound 13a, 3-Bromo-4,4′,5-trimethoxy-3′-hydroxy-Z-stilbene]
IC50 (purified tubulin; 10 μM tubulin, GTP 0.4 mM, 30° C., extent after 20 minutes, read-out: Inhibition of polymerization IC50 ± S.D.): 1500 ± 200 nM
GI50 (Pancreas BXPC-3; Homo sapiens, BXPC-3, read-out: Human cancer cell line inhibition (GI50) Pancreas-a BXPC-3): 0.16 µg/mL (≈ 0.438 µM)
GI50 (Breast MCF-7): < 0.001 µg/mL
GI50 (CNS SF268; Homo sapiens, SF-268, read-out: Human cancer cell line inhibition (GI50) CNS SF268): < 0.001 µg/mL
GI50 (Colon KM20L2; Homo sapiens, KM-20L2, read-out: Human cancer cell line inhibition (GI50) Colon KM20L2): 0.086 µg/mL (≈ 0.235 µM)
GI50 (Prostate DU-145; Homo sapiens, DU-145, read-out: Human cancer cell line inhibition (GI50) Prostate DU-145): < 0.001 µg/mL
GI50 (Lung-NSC NCI-H460; Homo sapiens, NCI-H460, read-out: Human cancer cell line inhibition (GI50) Lung-NSC NCI-H460): < 0.001 µg/mL
Range of minimum inhibitory concentration, Enterococcus faecalis (Enterococcus faecalis): * (no inhibition at 64 μg/ml)
Range of minimum inhibitory concentration, Micrococcus luteus (Micrococcus luteus): 32 to 64 µg/mL
Range of minimum inhibitory concentration, Candida albicans (Candida albicans): * (no inhibition at 64 μg/ml)
Range of minimum inhibitory concentration, Escherichia coli (Escherichia coli): * (no inhibition at 64 μg/ml)
Range of minimum inhibitory concentration, Neisseria gonorrhoeae (Neisseria gonorrhoeae): 32 to 64 µg/mL
Range of minimum inhibitory concentration, Stenotrophomonas maltophilia [1]: * (no inhibition at 64 μg/ml)
Range of minimum inhibitory concentration, Cryptococcus neoformans (Cryptococcus neoformans): * (no inhibition at 64 μg/ml)
Range of minimum inhibitory concentration, Enterobacter cloacae (Enterobacter cloacae): * (no inhibition at 64 μg/ml)
Range of minimum inhibitory concentration, Streptococcus pneumoniae (Streptococcus pneumoniae): * (no inhibition at 64 μg/ml)
Range of minimum inhibitory concentration, Staphylococcus aureus (Staphylococcus aureus): * (no inhibition at 64 μg/ml)
Inhibition of colchicine binding % inhibition ± S.D. (tubulin): 89 ± 2%
melting point: 108 to 109 °C

COc1ccc(/C=C\c2cc(I)c(OC)c(I)c2)cc1O [Compound 22a, 3,5-diiodo-4,4′-dimethoxy-3′-hydroxy-z-stilbene]
Number of junctions ([2]; 0.01 μg/ml): −
Lengths of Cords ([3]; 0.0001 μg/ml): +++
Lengths of Cords ([3]; 0.001 μg/ml): +
Lengths of Cords ([3]; 0.01 μg/ml): −
Number of junctions ([4]; 0.0001 μg/ml): +++
Relative % Growth ([5]; HUVEC, 0.00001 μg/ml): 87%
Relative % Growth ([5]; HUVEC, 0.0001 μg/ml): 84%
Relative % Growth ([5]; HUVEC, 0.001 μg/ml): 8%
Relative % Growth ([5]; HUVEC, 0.01 μg/ml): 4%
GI50 ([5]; Homo sapiens, HUVEC, Table V, read-out: Human Umbilical Vein Endothelial Cell (HUVEC) Inhibition Values (GI50)): 0.00028 µg/mL (≈ 0.000551 µM)
GI50 (KAT-4; Homo sapiens, KAT-4): 0.039 to 0.063 µg/mL (≈ 0.0768 to 0.124 µM)
GI50 (SW1736; Homo sapiens, SW-1736): 1.2 µg/mL (≈ 2.36 µM)

Potassium 3,5-dilodo-4,4′dimethoxy-z-stilbene 3′-O-phosphate [Compound S (Table Ia)]
Number of junctions ([2]; 0.1 μg/ml): −
Lengths of Cords ([3]; 0.001 μg/ml): +++
Lengths of Cords ([3]; 0.1 μg/ml): −
Number of junctions ([4]; 0.001 μg/ml): +++
Relative % Growth ([5]; HUVEC, 0.0001 μg/ml): 96%
Relative % Growth ([5]; HUVEC, 0.001 μg/ml): 88%
Relative % Growth ([5]; HUVEC, 0.01 μg/ml): 33%
Relative % Growth ([5]; HUVEC, 0.1 μg/ml): 15%
Human Umbilical Vein Endothelial Cell (HUVEC) Inhibition Values (GI50) ([5]; Table V): 0.0049 µg/mL
Human Anaplastic Thyroid Carcinoma Cell Line Inhibition Values (GI50) KAT-4 (KAT-4): 0.38 to 0.44 µg/mL
Human Anaplastic Thyroid Carcinoma Cell Line Inhibition Values (GI50) SW1736 (SW1736): >10 µg/mL

Potassium 3-iodo-4,4′,5-trimethoxy-z-stilbene 3′-O-phosphate [Compound 20c]
Lengths of Cords ([3]; 0.00001 μg/ml): +++
Lengths of Cords ([3]; 0.0001 μg/ml): +++
Lengths of Cords ([3]; 0.001 μg/ml): ++
Number of junctions ([4]; 0.00001 μg/ml): +++
Number of junctions ([4]; 0.0001 μg/ml): +++
Relative % Growth ([5]; HUVEC, 0.00001 μg/ml): 95%
Relative % Growth ([5]; HUVEC, 0.0001 μg/ml): 77%
Relative % Growth ([5]; HUVEC, 0.001 μg/ml): 10%
Relative % Growth ([5]; HUVEC, 0.01 μg/ml): 1%
Human Umbilical Vein Endothelial Cell (HUVEC) Inhibition Values (GI50) ([5]; Table V): 0.00025 µg/mL
Human Anaplastic Thyroid Carcinoma Cell Line Inhibition Values (GI50) KAT-4 (KAT-4): 0.37 to 0.43 µg/mL
Human Anaplastic Thyroid Carcinoma Cell Line Inhibition Values (GI50) SW1736 (SW1736): >10 µg/mL

combretastatin A-4 [Compound 1a, reference compound]
IC50 (purified tubulin; text b32, read-out: IC50, inhibition of the polymerization reaction): 1800 nM
Human cancer cell line inhibition (GI50) Pancreas-a BXPC-3 (Pancreas BXPC-3): 0.39 µg/mL
Human cancer cell line inhibition (GI50) CNS SF268 (CNS SF268): <0.001 µg/mL
Human cancer cell line inhibition (GI50) Colon KM20L2 (Colon KM20L2): 0.061 µg/mL
Human cancer cell line inhibition (GI50) Prostate DU-145 (Prostate DU-145): 0.0008 µg/mL
Human cancer cell line inhibition (GI50) Lung-NSC NCI-H460 (Lung-NSC NCI-H460): 0.0006 µg/mL
Inhibition of colchicine binding % inhibition ± S.D. (tubulin): 81 ± 3%
